The target in this test is T1, DGKA (Diacylglycerol kinase alpha) (Rattus norvegicus, UniProt P51556).
T1 construct: expressed in transfected cells; host or cells: HEK293T (SILAC HEK293T for LC-MS)
Kind of test: SILAC LC-MS ATP acyl phosphate probe competition, recombinant DGK-HEK293T lysates. The format is binding. The settings on record: ATP 1 mM, Ketanserin, Ritanserin 100 μM, RF001 1 mM; for SILAC ratio, DGKA C1 probe-modified peptide: site C1 (K237); for SILAC ratio, DGKA DAGKa probe-modified peptide: site DAGKa (K539); for SILAC ratio, DGKA DAGKc probe-modified peptide: site DAGKc (K377). Here is the method: All other vectors were gifted to Dr. Kevin Lynch (University of Virginia, School of Medicine) by Dr. Kaoru Goto (Yamagata University, School of Medicine) and Dr. Fumio Sakane (Chiba University) and were kindly shared with us: pcDNA3-FLAG-DGKA (rat), pCMV-Tag2B-FLAG-DGKQ (human), pcDNA3-DGKE-3×Flag (human), and pCMV-SPORT6-HA-DGKZ (human). HEK293T cells were plated at a concentration of 400,000 cells in complete DMEM and grown to 50-60% confluency. A polyethyleneimine (PEI) stock solution was prepared (1 mg/mL, pH 7.4) and filter sterilized. Serum-free DMEM (600 μL) was mixed gently with 2.6 μg DNA and 20 μL of sterile PEI (1 mg/mL, pH 7.4) in a sterile microfuge tube. Mixtures were incubated for 30 min at 25° C. The mixture was then added drop-wise to each 10 cm^2 plate, rocked back and forth to mix, and placed back in the incubator. Cell pellets were harvested after two full days of growth, snap-frozen in liquid N2, and stored at −80° C. until use. Recombinant proteins were produced by transient transfection in SILAC HEK293T cells using the procedure described above, except that cells were plated at a concentration of 1×10^6 cells per 10 cm^2 plate and grown to ˜70% confluency prior to introducing transfection mixture.
Proteomes were diluted to 2 mg/ml in kinase buffer. The light and heavy proteomes (0.5 mg, 250 μL total reaction volume) were pre-treated with vehicle or compound, respectively (5 μL, DMSO (light) or 50× stock in DMSO (heavy)), mixed gently, and incubated at 25° C. for 30 min. […] After incubation, matched light and heavy proteomes were transferred and mixed in a 1:1 ratio in a two-dram vial containing 4:1:3 MeOH/CHCl3/H2O (2 mL MeOH, 500 AL CHCl3, 1.5 mL H2O) for extraction of proteins to remove excess probe, quickly vortexed, and centrifuged at 1,400×g for 3 min to pellet protein. Organic and aqueous layers were removed using a Pasteur pipette, and the protein pellet was transferred to a screw-top tube in 600 μL MeOH. A second extraction was performed by adding CHCl3 (150 μL) and H2O (600 μL) to each sample, vortexed, and centrifuged at 1,400×g for 3 min to pellet protein. Organic and aqueous layers were removed by pipetting. MeOH added to pellet (600 μL) and pellets were re-suspended by sonication (3×1 sec pulse, 20% amplitude) for a final extraction. Samples were then centrifuged at 17,000×g for 5 min to pellet protein and MeOH was removed by pipetting. […] To desalt the samples, each was transferred to a two-dram glass vial, and to the vial 4:1:2 MeOH/CHCl3/H2O (2 mL MeOH, 500 AL CHCl3, 1 mL H2O) was added. The vials were vortexed quickly, spun at 1.400×g for 3 min to pellet protein, and aqueous and organic layers were removed using a Pasteur pipette. The resulting protein pellet was transferred to a screw-top tube in 600 μL MeOH, and then CHCl3 (150 μL) and HO (600 μL) were added to extract protein a second time. The samples were vortexed quickly, centrifuged at 1,400×g to pellet protein, and the aqueous and organic layers were removed by pipetting. Resulting protein pellet was suspended in MeOH (600 μL) via sonication (3×1 sec pulse, 20% amplitude), centrifuged at 17,000×g for 5 min to pellet protein, and MeOH removed by pipetting. Protein pellets were then re-suspended in 25 mM ammonium bicarbonate (500 μL) and digested with 7.5 μg Trypsin/Lys-C(Promega, 15 μL, 0.5 μg/μL) for 3 h at 37° C. Avidin-agarose beads (Thermo Scientific Pierce, 100 AL aliquot per sample) were washed three times by adding 10 mL DPBS, centrifuged at 1,400×g for 1 min, and decanting. This wash step was repeated for a total of 3 times. Digested protein samples were mixed with washed avidin beads (100 μL) and brought to a volume of 5.5 mL with DPBS in a 15 mL conical and rotated for 1 h to enrich samples for the covalent desthiobiotin modification. The beads were washed with 25 mM ammonium bicarbonate (3× with 10 mL, centrifuge at 1,400×g for 3 min, decant) and then H2O (3× with 10 mL, centrifuge at 1,400×g for 3 min, decant).

T1 sequence (P51556 whole entry): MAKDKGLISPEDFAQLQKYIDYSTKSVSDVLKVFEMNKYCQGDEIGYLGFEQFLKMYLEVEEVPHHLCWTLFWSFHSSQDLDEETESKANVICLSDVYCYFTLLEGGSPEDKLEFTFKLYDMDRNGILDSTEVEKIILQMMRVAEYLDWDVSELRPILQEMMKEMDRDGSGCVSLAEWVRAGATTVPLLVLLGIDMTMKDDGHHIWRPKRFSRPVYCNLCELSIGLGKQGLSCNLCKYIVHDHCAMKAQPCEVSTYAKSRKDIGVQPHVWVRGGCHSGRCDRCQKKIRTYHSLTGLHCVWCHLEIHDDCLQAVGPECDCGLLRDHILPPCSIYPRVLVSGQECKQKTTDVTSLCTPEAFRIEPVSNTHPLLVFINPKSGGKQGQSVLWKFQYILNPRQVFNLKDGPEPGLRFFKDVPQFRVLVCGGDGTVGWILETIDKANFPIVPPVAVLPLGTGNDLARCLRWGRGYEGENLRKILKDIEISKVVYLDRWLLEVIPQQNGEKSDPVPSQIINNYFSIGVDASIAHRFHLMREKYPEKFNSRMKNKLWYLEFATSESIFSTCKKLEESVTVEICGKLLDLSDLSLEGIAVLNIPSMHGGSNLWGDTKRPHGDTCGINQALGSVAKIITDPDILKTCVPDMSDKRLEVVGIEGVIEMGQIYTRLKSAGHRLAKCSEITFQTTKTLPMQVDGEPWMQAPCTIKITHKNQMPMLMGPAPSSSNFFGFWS

In the case of `O=C(c1ccc(F)cc1)C1CCN(CCn2c(=O)[nH]c3ccccc3c2=O)CC1` [Ketanserin], the “SILAC ratio, DGKA C1 probe-modified peptide” value was determined as 1.4; the “SILAC ratio, DGKA DAGKa probe-modified peptide” value was 1.3; the “SILAC ratio, DGKA DAGKc probe-modified peptide” value was found to be 1.2.

On to `Fc1ccc(C(=C2CCNCC2)c2ccc(F)cc2)cc1` [RF001, 4-(Bis(4-fluorophenyl)methylene) piperidine], for which the “SILAC ratio, DGKA C1 probe-modified peptide” value is reported as 12.6; the “SILAC ratio, DGKA DAGKa probe-modified peptide” value was 9.1; the “SILAC ratio, DGKA DAGKc probe-modified peptide” value is reported as 1.7.

On to `Cc1nc2sccn2c(=O)c1CCN1CCC(=C(c2ccc(F)cc2)c2ccc(F)cc2)CC1` [Ritanserin], for which the “SILAC ratio, DGKA C1 probe-modified peptide” value is on record as 7.0; the “SILAC ratio, DGKA DAGKa probe-modified peptide” value amounted to 7.0; the “SILAC ratio, DGKA DAGKc probe-modified peptide” value worked out at 2.0.

These data come from patent US12643867B2, “Compositions and uses thereof” (University of Virginia Patent Foundation, priority 2017, dated 2026).
